Experimental data published in patent US10653676B2 (Dana-Farber Cancer Institute, Inc., priority 2010, dated 2020).

What was measured:
UCH-L1 = target: T1, UCH-L1 (Homo sapiens, UniProt P09936); experiment: ubiquitin-AMC assay with UCH-L1; assay type: biochemical; conditions: in vitro
T1 sequence (P09936 1-223): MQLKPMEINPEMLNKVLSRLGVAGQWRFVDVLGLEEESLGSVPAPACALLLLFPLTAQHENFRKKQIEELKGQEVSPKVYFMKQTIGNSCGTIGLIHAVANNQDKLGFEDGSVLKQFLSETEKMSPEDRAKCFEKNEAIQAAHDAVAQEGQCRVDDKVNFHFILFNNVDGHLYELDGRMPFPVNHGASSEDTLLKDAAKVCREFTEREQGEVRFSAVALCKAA
Method: (§1) FIG. 6 is a composite figure showing that C527 is a pan-deubiqutinating enzyme inhibitor […]. Ubiquitin-AMC assay was performed using purified (FIG. 6A) USP12/UAF1/WDR20 (FIG. 6B) USP5 and (FIG. 6C) UCH-L1. Enzymes were incubated with DMSO or C527 at indicated concentrations for 3 h, followed by the addition of Ub-AMC at 0.5 μM final concentration. The fluorescence at […] was measured to indicate the enzymatic activity. FIG. 6D is a summary showing the IC50 of C527 against the indicated enzymes.
(§2) The in vitro enzymatic assays were performed using purified proteins from Sf9 cells as described previously (Cohn et al.). The assays using ubiquitin-AMC (Ub-7-amido-4-methylcoumarin; Boston Biochem) as substrate was carried out in a reaction buffer containing 20 mM HEPES-KOH (pH 7.8), 20 mM NaCl, 0.1 mg/ml ovalbumin, 0.5 mM EDTA and 10 mM dithiothreitol. The fluorescence was measured by FluoStar Galaxy Fluorometer (BMG Labtech). For the Ub-vinylsulfone (VS) assay, the proteins were incubated with Ub-VS at 0.5 μM final concentration for 1 h at 30° C., followed by the immunoblotting analysis.
(§3) To examine the specificity of C527 in USP1/UAF1 inhibition, its ability to inhibit other DUB enzymes in vitro was examined. […] Moreover, the active complex of USP12 contains an additional WD40 subunit (WDR20). […]

[1] = tested on: FANCD2-Ub and FANCI-Ub levels in HeLa cells; experiment: cell-based assay of monoubiquitinated FANCD2 and FANCI levels by immunoblotting; design: species or system human; conditions: eight hours, increasing concentrations, FIG. 3
Method: Candidate USP1 inhibitors from initial and secondary screens were then used in cell-based assays to look for USP1 inhibition in vivo using levels of FANCD2-Ub and PCNA-Ub as biomarkers for inhibition. For the cell-based assay, cells were treated with the candidate compounds and levels of monoubiquitinated FANCD2 and PCNA were tested both with and without DNA damage. USP1 inhibition was detected as high level of endogenous monoubiquitinated FANCD2 and PCNA. For this assay HeLa and HEK293T cells were treated with selected concentrations of these compounds and grown in Dulbecco's modified Eagle's medium supplemented with 15% heat-inactivated fetal calf serum in a humidified 5% CO2 incubator at 37° C. Damage was induced by both UV irradiation using Stratalinker (Stratagene) and treatment with mitomycin C (MMC, Sigma). After cell lysis, levels of monoubiquitinated FANCD2 and PCNA in whole cell lysate was tested by immunoblotting with anti-FANCD2 antibody (sc-20022; Santa Cruz Biotechnology) and anti-PCNA antibody (sc-56; Santa Cruz Biotechnology). Protection from chromosome aberrations were also tested in UV/MMC-damaged cells treated with candidate USP1 inhibitors using standard chromosome breakage assay. Yang et al. (2001) Blood 98:3435-40. […]

[2] = tested on: HeLa cells, integrated with the NHEJ reporter; experiment: NHEJ reporter assay; assay type: cell-based, human; conditions: same condition as HR assay; FIG. 8B
Method: FIG. 8 is a composite figure showing that C527 inhibits homologous recombination repair. […] U2OS-DRGFP cells were transfected with I-SCE-I and then exposed to C527 at the indicated concentration for 24 h. Cells were then subjected to flow cytometry analysis. The percentage of GFP positive cells was normalized by solvent vehicle treated group. […] HeLa cells, integrated with the NHEJ reporter, were treated with C527 and analyzed as described in (FIG. 8A). […] HeLa cells were pre-treated with DMSO or C527 at the indicated concentration and then exposed to camptothecin (CPT) for 1 hr. RAD51 foci were detected using immunofluorescence.
Disruption of FANCD2 monoubiquitination or of USP1 activity (Oestergaard V H, Langevin F, Kuiken H J, et al. Deubiquitination of FANCD2 is required for DNA crosslink repair. Mol Cell. 2007; 28:798-809; Kim J M, Parmar K, Huang M, et al. Inactivation of murine Usp1 results in genomic instability and a Fanconi anemia phenotype. Dev Cell. 2009; 16:314-320) results in decreased HR. A gene conversion assay was used to examine the effect of C527 on cellular HR activity (FIG. 8A).

HeLa cells = experiment: sensitization of HeLa cells to mitomycin C, cell survival by redox dye; assay type: cell-based, human; conditions: 20 micromolar compound; MMC 0, 200, or 500 nM; FIG. 4
Method: HeLa cells were pretreated for six hours with selected concentrations (0, 200, or 500 nM) of mitomycin C (MMC), washed, then exposed to selected concentrations (0, 10, or 20 μM) of the compound of Formula IV (527) for eight hours. Cell survival was measured by redox dye.

USP12/UAF1/WDR20 complex = target: T2, USP12/UAF1/WDR20 complex (Homo sapiens, UniProt O75317); experiment: ubiquitin-AMC assay with USP12/UAF1/WDR20; assay type: biochemical
T2 construct: made in house; host or cells: Sf9
Method: as §1, §2, §3

T2 sequence (O75317 whole entry, species assumed): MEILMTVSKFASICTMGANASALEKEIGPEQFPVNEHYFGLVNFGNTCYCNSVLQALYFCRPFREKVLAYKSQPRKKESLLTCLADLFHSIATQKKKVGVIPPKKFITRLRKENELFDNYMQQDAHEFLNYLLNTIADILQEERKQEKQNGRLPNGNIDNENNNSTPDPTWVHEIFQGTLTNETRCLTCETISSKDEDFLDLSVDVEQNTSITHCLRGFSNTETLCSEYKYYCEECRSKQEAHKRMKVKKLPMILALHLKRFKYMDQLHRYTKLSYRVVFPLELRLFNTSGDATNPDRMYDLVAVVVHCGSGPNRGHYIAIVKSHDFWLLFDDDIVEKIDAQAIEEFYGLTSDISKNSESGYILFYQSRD
T2 sequence (Q8TAF3 whole entry partner, species assumed): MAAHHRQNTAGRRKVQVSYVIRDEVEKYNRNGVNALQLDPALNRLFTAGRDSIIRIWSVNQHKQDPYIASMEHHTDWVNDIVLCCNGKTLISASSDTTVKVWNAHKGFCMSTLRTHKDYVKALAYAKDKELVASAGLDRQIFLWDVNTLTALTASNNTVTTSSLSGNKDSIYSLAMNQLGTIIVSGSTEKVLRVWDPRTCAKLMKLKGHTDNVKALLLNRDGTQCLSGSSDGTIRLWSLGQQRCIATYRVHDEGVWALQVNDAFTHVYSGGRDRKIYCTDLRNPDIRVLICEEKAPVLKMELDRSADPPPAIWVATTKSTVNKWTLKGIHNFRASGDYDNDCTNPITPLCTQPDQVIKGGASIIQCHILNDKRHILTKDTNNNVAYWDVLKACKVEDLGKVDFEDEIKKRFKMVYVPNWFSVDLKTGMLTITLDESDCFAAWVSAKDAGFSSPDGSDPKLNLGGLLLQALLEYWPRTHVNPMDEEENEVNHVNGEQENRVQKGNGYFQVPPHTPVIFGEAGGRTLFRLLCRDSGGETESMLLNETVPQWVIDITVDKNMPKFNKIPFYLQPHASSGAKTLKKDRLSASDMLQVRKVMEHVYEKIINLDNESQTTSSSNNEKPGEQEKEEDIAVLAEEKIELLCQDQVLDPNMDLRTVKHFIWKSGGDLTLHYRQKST
T2 sequence (Q8TBZ3 whole entry partner, species assumed): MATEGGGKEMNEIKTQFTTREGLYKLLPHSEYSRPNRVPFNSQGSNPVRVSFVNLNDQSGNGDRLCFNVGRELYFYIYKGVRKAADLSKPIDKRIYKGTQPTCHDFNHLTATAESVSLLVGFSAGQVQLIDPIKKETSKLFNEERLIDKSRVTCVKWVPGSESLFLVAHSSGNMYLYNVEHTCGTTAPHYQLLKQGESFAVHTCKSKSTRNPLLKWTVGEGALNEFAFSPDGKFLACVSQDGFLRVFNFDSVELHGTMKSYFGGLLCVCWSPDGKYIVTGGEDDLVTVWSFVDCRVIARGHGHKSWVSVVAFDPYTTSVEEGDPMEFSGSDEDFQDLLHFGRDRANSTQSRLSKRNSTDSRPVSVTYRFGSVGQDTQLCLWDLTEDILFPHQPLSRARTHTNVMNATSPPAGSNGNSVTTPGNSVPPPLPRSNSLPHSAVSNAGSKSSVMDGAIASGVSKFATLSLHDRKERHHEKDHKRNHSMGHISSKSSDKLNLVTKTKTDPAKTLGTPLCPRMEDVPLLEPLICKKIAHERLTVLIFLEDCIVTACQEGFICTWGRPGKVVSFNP

O=C1c2ccccc2C(=O)c2oc(-c3ccc(F)cc3)nc21 [Formula IV (527)]
inhibitory effect on UCH-L1 (UCH-L1): considerably less inhibitory effect
FANCD2-Ub levels [1]: dose-dependent increase
FANCI-Ub levels [1]: dose-dependent increase
non-homologous end joining (NHEJ) activity [2]: did not inhibit
sensitization to the cytotoxic effects of MMC (HeLa cells): sensitization of the HeLa cells
IC50 compared with USP1/UAF1 (USP12/UAF1/WDR20 complex; FIG. 6D): slightly higher
DUB activity of the USP12/UAF1/WDR20 complex (USP12/UAF1/WDR20 complex; in vitro, FIG. 6A): inhibited
